Common to all, as to assay: NCI anticancer screen, dose series, 48 h
Test [1] relates to UACC-257 melanoma.
For test [2], the system named is HT29 colon.
Test [3] deals with 786-0 renal.
Test [4] concerns TK-10 renal.
The subject of test [5] is CAKI-1 renal.
Test [6] relates to SF-295 CNS.
The subject of test [7] is COLO 205 colon.
Test [8] has as its system SF-539 CNS.
Test [9] relates to OVCAR-8 ovarian.
Test [10] concerns SW-620 colon.

Each structure is given as a SMILES string. Where “and” joins values, the source holds several entries; their conditions need not be identical. Equal entries are not always repeated.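 1) Cells in 96-well plates. 2) Compound, 48 h, 5 concentrations. 3) Linear interpolation between surrounding doses. 4) Unreached endpoint = highest concentration. Here, GI50 denotes the concentration required for 50% inhibition of growth. At the TGI there is no net growth.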

As for `CCOc1ccccc1NC(=O)CCc1nc(=S)[nH][nH]1`, the TGI in test [1], in test [2], in test [3], in test [4], in test [5] and in test [6] was above 100 µM each time. The TGI in test [7], in [8], in test [9] and in [10] was above 100 µM in each case.

Take `Cn1cc(CNCC2CCN(c3ncc(C(=O)NO)cn3)CC2)c2ccccc21`: the GI50 in [1] was 0.0119 µM; in [2], below 0.01 µM; in [3] it was 0.0414 µM; in test [4] it was below 0.0107 µM; in test [5], 0.0233 µM; in [6], 0.0169 µM. Moreover, the GI50 was below 0.0104 µM in test [7], 0.021 µM in test [8], below 0.01 µM in [9] and 0.0147 µM in test [10]. The TGI in test [1] was 0.363 µM; in test [2] it was 0.587 µM; in test [3], 8.89 µM; in [4], 0.0683 µM; in test [5], 0.169 µM; in test [6], 0.188 µM. For the same compound, the values for the TGI in [7], in test [8] and in test [10] were 0.107 µM, 13.4 µM and 2.11 µM, respectively.

Take `CNC(=S)N/N=C/c1ccc([N+](=O)[O-])s1`: the TGI in [1], in test [2], in test [3], in test [4], in test [5] and in test [6] was above 10 µM in each case. The TGI in test [7] was 8.55 µM; in test [8], above 10 µM; in [9] it was above 10 µM; in test [10], above 10 µM.

Consider `COc1ccc2c(c1)[n+]([O-])c(/C(C)=N/NC(=O)CC#N)c[n+]2[O-]`, for which the TGI in [1], in test [2], in [3], in test [4], in test [5] and in test [6] was above 100 µM throughout. The TGI in [7] is above 100 µM; in test [8] it was above 100 µM; in test [9], above 100 µM; in [10] it was 25.8 µM.

For `Fc1cccc(Cl)c1/C=N\N=C1c2ccccc2-c2ccccc21`, the TGI in test [1], in [2], in [3], in [4], in test [5] and in test [6] was above 100 µM throughout. Besides, the TGI in test [7], in [8], in [9] and in test [10] was above 100 µM in each case.

On to `CCN(CC)c1ccc2c(c1)Nc1cc(=C(C#N)C#N)c3ccccc3c1=N2`, for which the TGI in test [1], in test [2], in [3], in test [4], in [5] and in test [6] was above 100 µM throughout. Besides, the TGI in test [7], in [8], in [9] and in test [10] was above 100 µM in each case.

With `CC(=O)Nc1ccc(S(=O)(=O)NNC(=O)c2cccnc2Nc2ccc(Cl)cc2)cc1`, the GI50 in test [1] was 89.4 µM; in test [2] it was 4 µM; in [3], 48 µM; in [4] it was 25.3 µM; in test [5], 9.18 µM; in [6] it was 3.49 µM. Further, the GI50 is 10.3 µM in [7], 15.5 µM in test [8], 36.2 µM in test [9] and 7.64 µM in test [10]. In addition, the TGI in [1], in [2], in test [3], in test [4], in test [5] and in [6] was above 100 µM throughout. The TGI in test [7] is 57 µM; in test [8] it was 75.5 µM; in test [9] it was above 100 µM; in [10], above 100 µM.

For the compound `N#CC(NNC(=O)c1ccccc1O)c1cccc(O)c1` (stereo not given), the TGI in test [1], in [2], in [3], in test [4], in test [5] and in test [6] was above 100 µM throughout. In addition, the TGI is above 100 µM in [7], 18.5 µM in test [8], above 100 µM in test [9] and above 100 µM in [10].

Turning to `CC(C)(C)NC(=O)[C@H]1C[C@H]2CCCC[C@H]2CN1C[C@@H](O)[C@H](Cc1ccccc1)NC(=O)[C@H](CC(N)=O)NC(=O)c1ccc2ccccc2n1`, the GI50 in test [1] is 13.4 µM; in [2], 9.38 µM; in test [3] it was 13.8 µM; in test [4], 15.4 µM; in test [5], 16.4 µM; in test [6] it was 18.3 µM. Moreover, the GI50 is 10.5 µM in test [7], 2.93 µM in test [8], 23 µM in test [9] and 20.3 µM in [10]. In addition, the TGI in [1] is 28.2 µM; in test [2], 28.2 µM; in test [3], 31.1 µM; in [4] it was 36.6 µM; in test [5] it was 33.1 µM; in test [6] it was 39.3 µM. The TGI in test [7] is 29.8 µM; in test [8], 23.9 µM; in test [9] it was 62.4 µM; in test [10], 48.8 µM.

In the case of `COC(=O)C1=C(CS(=O)c2ccccc2[N+](=O)[O-])ON(C)C1c1ccccc1` (stereo not given), the TGI in test [1], in test [2], in test [3], in [4], in [5] and in [6] was above 100 µM in each case. For the same compound, the TGI in [7] is above 100 µM; in test [8], 56.2 µM; in test [9], 56.2 µM; in test [10], 88.6 µM.

With `CN[C@@H]1C[C@H]2O[C@@](C)([C@@H]1OC)n1c3ccccc3c3c4c(c5c6ccccc6n2c5c31)C(=O)N[C@@H]4O`, the GI50 in test [1] is 0.0848 µM; in [2] it was 0.0475 µM; in [4], 0.0195 µM and 0.0211 µM; in [6] it was 0.0367 µM; in [8], 0.0196 µM; in [9], 0.0354 µM. Further, the GI50 in test [10] is 0.147 µM. For the same compound, the TGI in [1] was 0.3 µM and 1.9 µM; in test [3] it was 0.172 µM; in [4], 0.3 µM and 0.0914 µM; in test [5], 0.0229 µM; in test [6], 0.3 µM and 0.204 µM; in test [7] it was 0.691 µM. For the same compound, the TGI was 0.0314 µM and 0.0577 µM in [8]; 0.164 µM and 0.719 µM in [9]; 0.3 µM and 1.88 µM in test [10].
